# Values of other authors in US20250341511A1, “MASS-TAG LABELING OF THE CELLULAR SECRETOME” (The Governing Council of the University of Toronto, priority 2022, published 2025).
# Conditions: relative to required assay concentration
smiles,measurement,value
C[Te]CCCOC(=O)NCCNC(=O)Cn1ccnc1[N+](=O)[O-] [Telox],metabolic LD50,close to the required assay concentration
